# Literature values in US8962267B1, “Method for predicting the response of non-small cell lung cancer patients to targeted pharmacotherapy” (Pamgene B.V., priority 2009, dated 2015).
# Test system: NSCLC
# Settings: second-line treatment of NSCLC patients, clinical trials, versus control
row,SMILES,overall survival [months]
1,"CC(=O)O[C@@]12CO[C@@H]1C[C@H](O)[C@@]1(C)C(=O)[C@H](O)C3=C(C)[C@@H](OC(=O)[C@H](O)[C@@H](NC(=O)OC(C)(C)C)c4ccccc4)C[C@@](O)([C@@H](OC(=O)c4ccccc4)[C@H]21)C3(C)C [docetaxal, docetaxel]",7.5
2,Nc1nc2[nH]cc(CCc3ccc(C(=O)N[C@@H](CCC(=O)O)C(=O)O)cc3)c2c(=O)[nH]1 [pemetrexed],8.3
3,C#Cc1cccc(Nc2ncnc3cc(OCCOC)c(OCCOC)cc23)c1 [erlotinib],6.7
